Data reported in patent US20160052898A1, “NOVEL COMPOUNDS” (BAYER PHARMA AKTIENGESELLSCHAFT, priority 2013, published 2016).
Read-outs that look alike come from different tables or passages of the source.

Key:
[1] = test system: HCT116 FOP control reporter cell line; test: HCT116 FOP control vector reporter assay (non-functional TCF elements); type: cell-based; details: HCT116 FOP control reporter cells, luciferase expression, 36 hours incubation, 50 μM to 15 nM, read-out: HCT116 FOPFlash IC50
Summary of the method: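 Stable HCT116 line carrying the non-functional FOP luciferase construct, 10000 cells/well plated 24 hrs before. Compounds 50 μM to 15 nM (3.16-fold steps) in CAFTY buffer pH 7.4 with 2 mM Ca2+, 36 hours at 37° C; luciferase luminescence read.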

[2] = test system: constitutive active colorectal cancer cell (CRC) Wnt pathway; test: HCT116 Super TopFlash cellular reporter assay (constitutive active Wnt pathway); type: cell-based; details: HCT116 TOP reporter cells, luciferase expression, 36 hours incubation, 50 μM to 15 nM
Summary of the method: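 HCT116 cells (β-catenin ΔS45) stably carrying Super TopFlash, with a parallel FOP-control line, were plated 24 h ahead. They were exposed 36 h at 37 °C, 5% CO2 to compound from a 50 μM–15 nM, 3.16-fold pre-dilution series in CAFTY buffer (pH 7.4, 2 mM Ca2+, 0.01% BSA). Wnt signalling was read as luciferase luminescence.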

Work on `CC(C(=O)Nc1cc(NC(=O)c2ccc(-c3ccccc3)cc2)ccc1C(F)(F)F)N1CC2CCC(C1)O2` (stereo not drawn) [Example 197, N-[3-{[(2S*)-2-(8-oxa-3-azabicydo[3.2.1]oct-3-yl)propanoyl]amino}-4-(trifluoromethyl)phenyl) biphenyl-4-carboxamide] yielded an IC50 [1] of at least 50000 nM and an IC50 [2] of 1480 nM.

`COc1ccc(NC(=O)c2ccc(-c3ccc(N(C)C)cc3)cc2)cc1NC(=O)CN1CCOCC1` [Example 198, 4′-(dimethylamino)-N-{4-methoxy-3-[(morpholin-4-ylacetyl)amino]phenyl} biphenyl-4-carboxamide] was tested, and the IC50 ([1]; Homo sapiens, HCT-116, 36 h) was at least 50000 nM and the IC50 ([2]; Homo sapiens, HCT-116, 36 h) was 1500 nM.

Compound `COc1ccc(NC(=O)c2ccc(-c3cc(F)cc(F)c3)cc2)cc1NC(=O)CN1CCOCC1` [Example 199, 3′,5′-difluoro-N-{4-methoxy-3-[(morpholin-4-ylacetyl)amino]phenyl} biphenyl-4-carboxamide] has an IC50 ([1]; Homo sapiens, HCT-116, 36 h) of at least 50000 nM and an IC50 ([2]; Homo sapiens, HCT-116, 36 h) of 1750 nM.

For `COCCc1noc(-c2ccc(C(=O)Nc3ccc(-c4ccccc4)cc3)cc2NC(=O)CN2CCOCC2)n1` [Example 200, N-(biphenyl-4-yl)-4-[3-(2-methoxyethyl)-1,2,4-oxadiazol-5-yl]-3-[(morpholin-4-ylacetyl)amino]benzamide], the IC50 ([1]; Homo sapiens, HCT-116, 36 h) was at least 50000 nM and the IC50 ([2]; Homo sapiens, HCT-116, 36 h) was 1750 nM.

Work on `COc1ccc(C(=O)Nc2ccc(-c3ccccc3)cc2)cc1NC(=O)CN1C[C@H]2C[C@@H]1CO2` [Example 201, N-(biphenyl-4-yl)-4-methoxy-3-{[(1R,4R)-2-oxa-5-azabicyclo[2.2.1]hept-5-ylacetyl)amino}benzamide] yielded an IC50 ([1]; Homo sapiens, HCT-116, 36 h) of at least 50000 nM and an IC50 ([2]; Homo sapiens, HCT-116, 36 h) of 1900 nM.

`COc1ccc(C(=O)Nc2ccc(-c3ccccc3)cc2)cc1NC(=O)CN1CCC(OC)C1` (stereo not drawn) [Example 202, N-(biphenyl-4-yl)-4-methoxy-3-{[(3-methoxypyrrolidin-1-yl)acetyl]amino}benzamide] showed an IC50 ([1]; Homo sapiens, HCT-116, 36 h) of at least 50000 nM and an IC50 ([2]; Homo sapiens, HCT-116, 36 h) of 1900 nM.

For `COc1ccc(NC(=O)c2ccc(-c3ccccc3)c(F)c2)cc1NC(=O)CN1CCOCC1` [Example 203, 2-fluoro-N-{4-methoxy-3-[(morpholin-4-ylacetyl)amino]phenyl} biphenyl-4-carboxamide], the IC50 ([1]; Homo sapiens, HCT-116, 36 h) was at least 50000 nM and the IC50 ([2]; Homo sapiens, HCT-116, 36 h) was 2020 nM.

In the case of `O=C(CN1CCOCC1)Nc1cc(C(=O)Nc2ccc(-c3ccccc3)cc2)ccc1CO` [Example 204, N-(biphenyl-4-yl)-4-(hydroxymethyl)-3-[(morpholin-4-ylacetyl)amino]benzamide], the IC50 ([1]; Homo sapiens, HCT-116, 36 h) is reported as at least 50000 nM and the IC50 ([2]; Homo sapiens, HCT-116, 36 h) is reported as 2250 nM.

`COc1ccc(NC(=O)c2ccc(-c3ccccc3)cc2)cc1NC(=O)CN1C[C@H]2C[C@@H]1CO2` [Example 205, N-(4-methoxy-3-{[(1R,4R)-2-oxa-5-azabicyclo[2.2.1]hept-5-ylacetyl]amino}phenyl) biphenyl-4-carboxamide] gave an IC50 ([1]; Homo sapiens, HCT-116, 36 h) of at least 50000 nM and an IC50 ([2]; Homo sapiens, HCT-116, 36 h) of 2450 nM.

Compound `COc1ccc(C(=O)Nc2ccc(-c3ccccc3)cc2)cc1NC(=O)C1(N2CCOCC2)CCC1` [Example 206, N-(biphenyl-4-yl)-4-methoxy-3-({[1-(morpholin-4-yl)cyclobutyl)carbonyl}amino)benzamide] has an IC50 ([1]; Homo sapiens, HCT-116, 36 h) of at least 50000 nM and an IC50 ([2]; Homo sapiens, HCT-116, 36 h) of 2480 nM.

`COc1ccc(C(=O)Nc2ccc(-c3ccccc3)cc2)cc1NC(=O)CN1CC(OC)C1` [Example 207, N-(biphenyl-4-yl)-4-methoxy-3-{[(3-methoxyazetidin-1-yl)acetyl]amino}benzamide] showed an IC50 ([1]; Homo sapiens, HCT-116, 36 h) of at least 50000 nM and an IC50 ([2]; Homo sapiens, HCT-116, 36 h) of 2600 nM.

`COc1ccc(NC(=O)c2ccc(-c3ccc4c(c3)CCO4)cc2)cc1NC(=O)CN1CCOCC1` [Example 208, 4-(2,3-dihydro-1-benzofuran-5-yl)-N-{4-methoxy-3-[(morpholin-4-ylacetyl)amino]phenyl} benzamide] showed an IC50 ([1]; Homo sapiens, HCT-116, 36 h) of at least 50000 nM and an IC50 ([2]; Homo sapiens, HCT-116, 36 h) of 3000 nM.

Compound `COc1ccc(NC(=O)c2ccc(-c3cccc(N)c3)cc2)cc1NC(=O)CN1CCOCC1` [Example 209, 3′-amino-N-{4-methoxy-3-[(morpholin-4-ylacetyl)amino]phenyl} biphenyl-4-carboxamide] has an IC50 ([1]; Homo sapiens, HCT-116, 36 h) of at least 50000 nM and an IC50 ([2]; Homo sapiens, HCT-116, 36 h) of 3550 nM.

For `COc1ccc(C(=O)Nc2ccc(-c3ccccc3)cc2)cc1N(C)C(=O)CN1CC2CCC(C1)O2` [Example 210, N-(biphenyl-4-yl)-4-methoxy-3-[methyl(8-oxa-3-azabicyclo[3.2.1]oct-3-ylacetyl)amino]benzamide], the IC50 ([1]; Homo sapiens, HCT-116, 36 h) was at least 50000 nM and the IC50 ([2]; Homo sapiens, HCT-116, 36 h) was 3600 nM.

Compound `NC(=O)COc1ccc(NC(=O)c2ccc(-c3ccccc3)cc2)cc1NC(=O)CN1CCOCC1` [Example 211, N-{4-(2-amino-2-oxoethoxy)-3-[(morpholin-4-ylacetyl)amino]phenyl} biphenyl-4-carboxamide] has an IC50 ([1]; Homo sapiens, HCT-116, 36 h) of at least 50000 nM and an IC50 ([2]; Homo sapiens, HCT-116, 36 h) of 3900 nM.

`COc1ccc(NC(=O)c2ccc(-c3ccccc3)cc2)cc1NC(=O)CN1C[C@@H](C)O[C@@H](C)C1` [Example 212, N-[3-({[(2R,6S)-2,6-dimethylmorpholin-4-yl]acetyl}amino)-4-methoxyphenyl]biphenyl-4-carboxamide] showed an IC50 ([1]; Homo sapiens, HCT-116, 36 h) of at least 50000 nM and an IC50 ([2]; Homo sapiens, HCT-116, 36 h) of 4350 nM.

For `COc1ccc(NC(=O)c2ccc(-c3ccccc3)cc2)cc1NC(=O)CN1CCOC[C@@H]1CCO` [Example 213, N-[3-({[(3S)-3-(2-hydroxyethyl)morpholin-4-yl]acetyl}amino)-4-methoxyphenyl]biphenyl-4-carboxamide], the IC50 ([1]; Homo sapiens, HCT-116, 36 h) was at least 50000 nM and the IC50 ([2]; Homo sapiens, HCT-116, 36 h) was 4600 nM.

`COc1ccc(NC(=O)c2ccc(-c3ccccc3)cc2)cc1NC(=O)CN1CCO[C@H](CO)C1` [Example 214, N-[3-({[(2S)-2-(hydroxymethyl)morpholin-4-yl]acetyl}amino)-4-methoxyphenyl]biphenyl-4-carboxamide] showed an IC50 ([1]; Homo sapiens, HCT-116, 36 h) of at least 50000 nM and an IC50 ([2]; Homo sapiens, HCT-116, 36 h) of 4900 nM.

In the case of `COc1c(Cl)cc(C(=O)Nc2ccc(-c3ccccc3)cc2)cc1NC(=O)CN1CCN(C)CC1` [Example 215, N-(biphenyl-4-yl)-3-chloro-4-methoxy-5-{[(4-methylpiperazin-1-yl)acetyl]amino}benzamide], the IC50 ([1]; Homo sapiens, HCT-116, 36 h) is reported as 18900 nM and the IC50 ([2]; Homo sapiens, HCT-116, 36 h) is reported as 772 nM.

`COc1c(F)cc(C(=O)Nc2ccc(-c3ccccc3)cc2)cc1NC(=O)CN1CCN(C)CC1` [Example 216, N-(biphenyl-4-yl)-3-fluoro-4-methoxy-5-{[(4-methylpiperazin-1-yl)acetyl]amino}benzamide] showed an IC50 ([1]; Homo sapiens, HCT-116, 36 h) of 6950 nM and an IC50 ([2]; Homo sapiens, HCT-116, 36 h) of 524 nM.

For `COCCOCCOc1ccc(C(=O)Nc2ccc(-c3ccccc3)cc2)cc1NC(=O)C1(N2CCOCC2)CC1` [Example 217, N-(biphenyl-4-yl)-4-[2-(2-methoxyethoxy}ethoxy)-3-({[1-(morpholin-4-yl)cyclopropyl]carbonyl}amino)benzamide], the IC50 ([1]; Homo sapiens, HCT-116, 36 h) was 1630 nM and the IC50 ([2]; Homo sapiens, HCT-116, 36 h) was 27 nM.

`COCCOc1ccc(C(=O)Nc2ccc(-c3ccccc3)cc2)cc1NC(=O)C1(N2CCOCC2)CC1` [Example 218, N-(biphenyl-4-yl)-4-(2-methoxyethoxy)-3-({[1-(morpholin-4-yl)cyclopropyl]carbonyl)amino)benzamide] gave an IC50 ([1]; Homo sapiens, HCT-116, 36 h) of at least 50000 nM and an IC50 ([2]; Homo sapiens, HCT-116, 36 h) of 11 nM.

For `O=C(CN1CCN(C2CC2)CC1)Nc1cc(C(=O)Nc2ccc(-c3ccccc3)cc2)ccc1OCC1CC1` [Example 219, N-(biphenyl-4-yl)-4-(cyclopropylmethoxy)-3-{[(4-cyclopropylpiperazin-1-yl)acetyl]amino}benzamide], the IC50 ([1]; Homo sapiens, HCT-116, 36 h) was at least 50000 nM and the IC50 ([2]; Homo sapiens, HCT-116, 36 h) was 65.5 nM.

Compound `O=C(CN1CCOCC1)Nc1cc(C(=O)Nc2ccc(-c3ccccc3)cc2)ccc1OCC1CC1` [Example 220, N-(biphenyl-4-yl)-4-(cyclopropylmethoxy)-3-[(morpholin-4-ylacetyl)amino)benzamide] has an IC50 ([1]; Homo sapiens, HCT-116, 36 h) of at least 50000 nM and an IC50 ([2]; Homo sapiens, HCT-116, 36 h) of 160 nM.
